We go through 3 compounds from ChEMBL document CHEMBL2385044, “Inhibitors for the hepatitis C virus RNA polymerase explored by SAR with advanced machine learning methods” (Bioorg Med Chem, 2013).

Test [1] has as its system Hepatitis C virus. Briefly: Inhibition of Hepatitis C virus subtype 1b J4L6 NS5B Cdelta21 RNA dependent RNA polymerase after 60 mins by liquid scintillation counting analysis. The note with it: J4L6, 1 h.
For test [2], the system named is Hepatitis C virus. Put plainly: Inhibition of Hepatitis C virus CON1 NS5B RNA dependent RNA polymerase after 2 hrs by scintillation counting analysis. Also on record: species or system Hepacivirus hominis. The note with it: Con1, 2 h.

Usually IC50 stands for the concentration at which inhibition is half-maximal. `COc1c2c(cc3c1C(C#CCOc1cc4c5c(oc4cc1C(C)(C)C)CCCC5)N(C)CC3)OCO2` (centres undefined) registered an IC50 in the test with Hepatitis C virus [1] of 38 µM. In turn, `CCOC(=O)c1c(NC(=O)CSc2nnc3nc4[nH]c5ccccc5c4nn23)sc2c1CCN(C)C2` yielded an IC50 in the test on Hepatitis C virus [1] of 46.3 µM. By IC90 is commonly meant the concentration needed for an effect of 90%. Read a low IC90 as greater potency. Take `CCOc1nc2cccc(C(=O)OC(C)OC(=O)OC3CCCCC3)c2n1Cc1ccc(-c2ccccc2-c2nn[nH]n2)cc1` (centres undefined) [CANDESARTAN CILEXETIL]: in the test on Hepatitis C virus [2], the IC50 was found to be 14.2 µM and the concentration for an effect of 90% (IC90) came to 28 µM.
